Measured values as given in US4767765A, “N-substituted-N-[3-(1,2,4-triazolo-[4,3-b]pyridazin-6-yl )phenyl]alkanamides, carbamates and ureas” (American Cyanamid Company, priority 1987, dated 1988).

What was measured:
[1] = test system: Clonic Seizures Caused by Pentylenetetrazole in Rats; assay: Protection against clonic seizures caused by pentylenetetrazole in rats; assay type: in vivo; settings: Rattus norvegicus, oral or i.p., pentylenetetrazole 23 mg/kg i.v. at 30 or 60 minutes, read-out: % of Rats Protected
Experimental: The antianxiety and anticonvulsant properties of the novel compounds of the present invention were established in a test which indicates both anxiolytic and antiepileptic activity by the measure of protection from convulsions resulting from the administration of pentylenetetrazole. Single or graded dose levels of the test compounds were administered orally or intraperitoneally in a 2% starch vehicle, containing 0.5% v/v polyethylene glycol and one drop of Polysorbate 80 to groups of at least 4 rats. At 30 or 60 minutes, the rats were treated intravenously with pentylenetetrazole at a dose of 23 mg/kg of body wieght. This dose is estimated to cause clonic seizures in 99% of unprotected rats. It has been reported [R. T. Hill and D. H. Tedeschi, "Animal Testing and Screening Procedures in Evaluating Psychotropic Drugs" in An Introduction to Psychopharmacology, Eds. R. R. Rech and K. E. Moore, Raven Press, New York, pp 237-288 (1971,] that there is a high degree of correlation between antagonism of pentylenetetrazole seizures in rats and antianxiety and anticonvulsant effects in higher warm-blooded animals. The results of this test on representative compounds of this invention are shown in Table I.

[2] = test system: Brain-Specific Receptors of Rats; assay: Inhibition of the binding of 3H-benzodiazepine to brain-specific receptors of rats; set-up: species or system rat (Wistar); settings: 3H-diazepam 1.5 nM or 3H-flunitrazepam 1.0 nM; rat cortex P2 fraction, pH 7.4, 30 minutes in ice; test concentration not given
[3] = test system: Nonconditioned Passive Avoidance in Rats; assay: Nonconditioned passive avoidance test in rats (conflict procedure); assay type: in vivo, rat (Wistar); set-up: key: Active: considered active if the number of shocks received by the test group is significantly higher than the control group by the Mann-Witney U test; settings: oral or i.p., 30 or 60 minutes
Experimental: Another test which has been used to assess anti-anxiety effects is a non-conditioned passive avoidance procedure described by J. R. Vogel, B. Beer and D. E. Clody, "A Simple and Reliable Conflict Procedure for Testing Anti-anxiety Agents", Psychopharmacologia, 21, 1-7 (1971). A conflict situation is induced in rats by a modification of this method.
Groups of 6 naive, Wistar strain rats, weighing 200-240 g each were deprived of water for 48 hours and food for 24 hours. The test compounds were administered in single or graded, oral or intraperitoneal doses, suspended in a 2% starch vehicle containing 0.5% v/v polyethylene glycol and one drop of polysorbate 80. Control animals received the vehicle alone. At 30 or 60 minutes each rat was placed in an individual plexiglass chamber. Water was available ad libitum from a tap located in the rear of the chamber. A 0.7 milliampere DC shocking current was established between the stainless steel grid floor and the tap. After 20 licks of non-shocked drinking, a shock was delivered for 2 seconds and then further shocks were delivered on a ratio of one shock for 2 seconds for every 20 licks. This was continued for a total of 3 minutes. The number of shocks taken by each rat during the 3 minute interval was recorded and compared to a control group. […]

SMILES: CCN(C(=O)OC)c1cccc(-c2ccc3nncn3n2)c1 [Ethyl[3-(1,2,4-triazolo[4,3-b]pyridazin-6-yl)phenyl]carbamic acid, methyl ester]
- responders at 25 mg/kg [1]: 100%
- % Inhibition [2]: 78%
- Results (nonconditioned passive avoidance) ([3]; dose 25 mg/kg): Active

SMILES: CCN(C(=O)OC)c1cccc(-c2ccc3nnc(C)n3n2)c1 [Ethyl[3-(3-methyl-1,2,4-triazolo[4,3-b]pyridazin-6-yl)phenyl]carbamic acid, methyl ester]
- responders at 3.1 mg/kg [1]: 75%
- % Inhibition [2]: 60%
- Results (nonconditioned passive avoidance) ([3]; dose 1.5 mg/kg): Active

SMILES: COC(=O)N(C)c1cccc(-c2ccc3nncn3n2)c1 [Methyl-[3-(1,2,4-triazolo[4,3-b]pyridazin 6-yl)phenyl]carbamic acid, methyl ester]
- responders at 25 mg/kg [1]: 25%
- % Inhibition [2]: 62%

SMILES: COC(=O)N(C)c1cccc(-c2ccc3nnc(C)n3n2)c1 [Methyl[3-(3-methyl-1,2,4-triazolo[4,3-b]pyridazin-6-yl)phenyl]carbamic acid, methyl ester]
- responders at 25 mg/kg [1]: 100%
- % Inhibition [2]: 62%
- Results (nonconditioned passive avoidance) ([3]; dose 3.1 mg/kg): Active

SMILES: Cc1nnc2ccc(-c3cccc(N(C)C(=O)N(C)C)c3)nn12 [N,N,N'-Trimethyl-N'-[3-(3-methyl-1,2,4-triazolo[4,3-b]pyridazin-6-yl)phenyl]urea]
- responders at 25 mg/kg [1]: 50%
- Results (nonconditioned passive avoidance) ([3]; dose 25 mg/kg): Active

SMILES: Cc1nnc2ccc(-c3cccc(NC(=O)N(C)C)c3)nn12 [N,N-Dimethyl-N'-[3-(3-methyl-1,2,4-triazolo[4,3-b]pyridazin-6-yl)phenyl]urea]
- % Inhibition [2]: 10%

SMILES: C=CCN(C(C)=O)c1cccc(-c2ccc3nncn3n2)c1 [N-2-Propenyl-N-[3-(1,2,4-triazolo[4,3-b]pyridazin-6-yl)phenyl]acetamide]
- % Inhibition [2]: 68%

SMILES: C#CCN(C(C)=O)c1cccc(-c2ccc3nncn3n2)c1 [N-2-Propynyl-N-[3-(1,2,4-triazolo[4,3-b]pyridazin-6-yl)phenyl]acetamide]
- % Inhibition [2]: 49%

SMILES: CC(=O)N(CC1CC1)c1cccc(-c2ccc3nnc(C)n3n2)c1 [N-(Cyclopropylmethyl)-N-[3-(3-methyl-1,2,4-triazolo[4,3-b]pyridazin-6-yl)phenyl]acetamide]
- responders at 12.5 mg/kg [1]: 75%
- % Inhibition [2]: 93%
- Results (nonconditioned passive avoidance) ([3]; dose 6.2 mg/kg): Active

SMILES: CCN(C(=O)N(C)C)c1cccc(-c2ccc3nnc(C)n3n2)c1 [N-Ethyl-N',N'-dimethyl-N-[(3-methyl-1,2,4-triazolo[4,3-b]pyridazin-6-yl)phenyl]urea]
- responders at 12.5 mg/kg [1]: 75%
- Results (nonconditioned passive avoidance) ([3]; dose 3.1 mg/kg): Active

SMILES: CCN(C(C)=O)c1cccc(-c2ccc3nncn3n2)c1 [N-Ethyl-N-[3-(1,2,4-triazolo[4,3-b]pyridazin-6-yl)phenyl]acetamide]
- responders at 25 mg/kg [1]: 100%
- % Inhibition [2]: 78%
- Results (nonconditioned passive avoidance) ([3]; dose 12.5 mg/kg): Active

SMILES: CCC(=O)N(CC)c1cccc(-c2ccc3nncn3n2)c1 [N-Ethyl-N-[3-(1,2,4-triazolo[4,3-b]pyridazin-6-yl)phenyl]propanamide]
- responders at 3.1 mg/kg [1]: 50%
- % Inhibition [2]: 84%
- Results (nonconditioned passive avoidance) ([3]; dose 3.1 mg/kg): Active

SMILES: CCN(C(C)=O)c1cccc(-c2ccc3nnc(N)n3n2)c1 [N-Ethyl-N-[3-(3-amino-1,2,4-triazolo[4,3-b]pyridazin-6-yl)phenyl]acetamide]
- % Inhibition [2]: 90%

SMILES: CCN(C(C)=O)c1cccc(-c2ccc3nnc(C)n3n2)c1 [N-Ethyl-N-[3-(3-methyl-1,2,4-triazolo[4,3-b]pyridazin-6-yl)phenyl]acetamide]
- responders at 12.5 mg/kg [1]: 100%
- % Inhibition [2]: 90%
- Results (nonconditioned passive avoidance) ([3]; dose 0.8 mg/kg): Active

SMILES: CCC(=O)N(CC)c1cccc(-c2ccc3nnc(C)n3n2)c1 [N-Ethyl-N-[3-(3-methyl-1,2,4-triazolo[4,3-b]pyridazin-6-yl)phenyl]propanamide]
- responders at 3.1 mg/kg [1]: 75%
- % Inhibition [2]: 95%
- Results (nonconditioned passive avoidance) ([3]; dose 3.1 mg/kg): Active

SMILES: CC(=O)N(C)c1cccc(-c2ccc3nncn3n2)c1 [N-Methyl-N-[3-(1,2,4-triazolo[4,3-b]pyridazin-6-yl)phenyl]acetamide]
- responders at 25 mg/kg [1]: 50%
- % Inhibition [2]: 45%
- Results (nonconditioned passive avoidance) ([3]; dose 12.5 mg/kg): Active

SMILES: CCC(=O)N(C)c1cccc(-c2ccc3nncn3n2)c1 [N-Methyl-N-[3-(1,2,4-triazolo[4,3-b]pyridazin-6-yl)phenyl]propanamide]
- responders at 25 mg/kg [1]: 100%
- % Inhibition [2]: 56%
- Results (nonconditioned passive avoidance) ([3]; dose 25 mg/kg): Active

SMILES: CC(=O)N(C)c1cccc(-c2ccc3nnc(N)n3n2)c1 [N-Methyl-N-[3-(3-amino-1,2,4-triazolo[4,3-b]pyridazin-6-yl)phenyl]acetamide]
- % Inhibition [2]: 58%

SMILES: CC(=O)N(C)c1cccc(-c2ccc3nnc(C)n3n2)c1 [N-Methyl-N-[3-(3-methyl-1,2,4-triazolo[4,3-b]pyridazin-6-yl)phenyl]acetamid]
- responders at 6 mg/kg ([1]; dose 6.0 mg/kg): 100%
- % Inhibition [2]: 89%
- Results (nonconditioned passive avoidance) ([3]; dose 3.1 mg/kg): Active

SMILES: CCC(=O)N(C)c1cccc(-c2ccc3nnc(C)n3n2)c1 [N-Methyl-N-[3-(3-methyl-1,2,4-triazolo[4,3-b]pyridazin-6-yl)phenyl]propanamide]
- responders at 12.5 mg/kg [1]: 25%
- % Inhibition [2]: 89%
- Results (nonconditioned passive avoidance) ([3]; dose 3.1 mg/kg): Active

SMILES: C=CCN(C(C)=O)c1cccc(-c2ccc3nnc(C)n3n2)c1 [N-[3-(3-Methyl-1,2,4-triazolo[4,3-b]pyridazin-6-yl)phenyl]-N-2-propenylacetamide]
- responders at 6.25 mg/kg ([1]; dose 6.25 mg/kg): 100%
- % Inhibition [2]: 96%
- Results (nonconditioned passive avoidance) ([3]; dose 25 mg/kg): Active

SMILES: CCCN(C(C)=O)c1cccc(-c2ccc3nnc(C)n3n2)c1 [N-[3-(3-Methyl-1,2,4-triazolo[4,3-b]pyridazin-6-yl)phenyl]-N-propylacetamide]
- % Inhibition [2]: 93%

SMILES: CCC(=O)Nc1cccc(-c2ccc3nnc(C)n3n2)c1 [N-[3-(3-Methyl-1,2,4-triazolo[4,3-b]pyridazin-6-yl)phenyl]propanamide]
- % Inhibition [2]: 56%

SMILES: C#CCN(C(C)=O)c1cccc(-c2ccc3nnc(C)n3n2)c1 [N-[3-(3-Methyl-1,2,4-triazolo[4,3b]pyridazin-6-yl)phenyl]-N-2-propynylacetamide]
- responders at 3.1 mg/kg [1]: 100%
- % Inhibition [2]: 90%
- Results (nonconditioned passive avoidance) ([3]; dose 1.5 mg/kg): Active

SMILES: COC(=O)Nc1cccc(-c2ccc3nncn3n2)c1 [[3-(1,2,4-Triazolo[4,3-b]pyridazin-6-yl)phenyl]carbamic acid, methyl ester]
- % Inhibition [2]: 18%

SMILES: COC(=O)Nc1cccc(-c2ccc3nnc(C)n3n2)c1 [[3-(3-Methyl-1,2,4-triazolo[4,3-b]pyridazin-6-yl)phenyl]carbamic acid, methyl ester]
- % Inhibition [2]: 18%
- Results (nonconditioned passive avoidance) ([3]; dose 25 mg/kg): Active
